In patent US12187681B2 (Shanghai East Hospital, priority 2019, dated 2025):

Legend:
Type in all cases: cell-based
[1] = molecular target: T1, human calcium channel, voltage-dependent, L type (CaV1.2: CACNA1C, CACNB2, CACNA2D1) (Homo sapiens, UniProt Q13936); assay: CaV1.2 channel whole-cell patch clamp (Ion Channel Activity Measurement); conditions: room temperature; for Cav1.2 1 μM (ion-channel inhibition): 1 μM test article; for CaV 1.2 10 μM (ion-channel inhibition): 10 μM test article
T1 construct: expressed in transfected cells; host or cells: CHO
Procedure, shortened: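 Whole-cell patch clamp was run on CHO cells stably expressing CACNA1C/CACNB2/CACNA2D1 at 23–25 °C, with 10 mM CaCl2 TEA bath (pH 7.4) and CsCl pipette solution (pH 7.2). Currents were evoked from −80 mV to +10 mV for 0.3 s every 20 s without leak subtraction. Ascending concentrations were each applied for 5 min or until steady state.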

[2] = molecular target: T2, human ERG (ether-a-go-go related gene) potassium channel (Homo sapiens, UniProt Q12809); assay: hERG channel whole-cell patch clamp (Ion Channel Activity Measurement); conditions: room temperature; for hERG 1 μM (ion-channel inhibition): 1 μM test article; for hERG 10 μM (ion-channel inhibition): 10 μM test article
T2 construct: expressed in transfected cells; host or cells: HEK293
Procedure, shortened: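 HEK293 cells stably expressing hERG (NM_000238) were recorded by whole-cell patch clamp at 23-25° C. Holding potential −80 mV, step to 30 mV for 2.5 s, tail currents at −50 mV for 4 s, pulses every 10 s. Each concentration was perfused low to high for 5 min or to steady state, with each cell as its own control.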

[3] = molecular target: T3, Iks potassium voltage-gated channel (KCNQ1 and KCNE1) (Homo sapiens, UniProt P51787); assay: Iks channel whole-cell patch clamp (Ion Channel Activity Measurement); conditions: room temperature
T3 construct: expressed in transfected cells; host or cells: CHO
Description: CHO cell line stably expressing Iks potassium voltage-gated channel subfamily Q member 1(KCNQ1) and potassium voltage-gated channel subfamily E regulatory subunit 1 (KCNE1), cDNA strictly similar to GenBank accession number: NM_000218 and NM_000219
Cells expressing channels were cultured in medium supplemented with 20% FBS in HAM'S F12 culture dish. Cells grew in a humidified incubator at 37° C. under 5% carbon dioxide. To passage cells, remove poor medium and rinse the cells once with PBS 1X. […] Place plate on a 37° C. warming incubator 5 min. As soon as cells are detached, add 5 ml of 37° C. complete medium. Draw cell suspension into a sterile pipet and homogenize cells gently to dissociate cells aggregates. Amplify or maintain the cells by seeding 2.5*105 cells in a 6 cm dish (final volume: 5 ml). To maintain electrophysiological performances, cell density must not exceed 80%. On the day before patch clamp experiment, 3*103 cells were seeded on coverslips in the 24-well plate and incubated at 37° C. in 5% carbon dioxide.
Extracellular solution (mM): 140 NaCl, 2.5 KCl, 1 MgCl2, 2 CaCl2, 5 Glucose, 10 HEPES, pH=7.4 with NaOH.
Pipette solution (mM): 120 K-aspartic, 10 HEPES, 5 MgCl2, 5 EGTA, 4 Na2-ATP 0.3 Na2-GTP, 14 mM Phosphocreatine disodium salt, 20 u/mL Creatine phosphor kinse pH 7.2 with KOH
Glass pipette (BF150-86-10, Sutter Instruments) was made by puller (P97, Sutter Instruments). The glass pipette was manipulated using Micro-manipulator (Carm-C-S, MCI Instruments) under the microscope (AE31EF-INV, Motic). After touching the cell, a slight suction was applied to achieve high seal (GΩ). Fast capacitance (in pF) compensation was made after high seal was achieved; after achieving high seal, the membrane was broken, Cell capacitance (in pF) compensation was made from whole-cell capacitance compensation after the whole cell mode was achieved. No leak subtraction was made.
Cell was incubated with the test article for 5 minutes, or until the current reached a steady-state level. Multiple concentrations of test article were tested. The test articles were applied gradually from low to high concentration. The test and control solutions were flown into a recording chamber mounted on the stage of an inverted microscope via a gravity-fed solution delivery system. During the experiment, solutions were withdrawn from the recording chamber by vacuum aspiration. Each concentration was tested at multiple times. Each cell acted as its own control. All tests were performed at room temperature (23-25° C.).
IKs current was measured using a pulse protocol consisting of −80 mV holding potential increment up to +60 mV over a period of 5 seconds. And then quickly repolarizedat −40 mV and maintained for 4 seconds.

T1 sequence (Q13936 1-2138 isoform Q13936-12): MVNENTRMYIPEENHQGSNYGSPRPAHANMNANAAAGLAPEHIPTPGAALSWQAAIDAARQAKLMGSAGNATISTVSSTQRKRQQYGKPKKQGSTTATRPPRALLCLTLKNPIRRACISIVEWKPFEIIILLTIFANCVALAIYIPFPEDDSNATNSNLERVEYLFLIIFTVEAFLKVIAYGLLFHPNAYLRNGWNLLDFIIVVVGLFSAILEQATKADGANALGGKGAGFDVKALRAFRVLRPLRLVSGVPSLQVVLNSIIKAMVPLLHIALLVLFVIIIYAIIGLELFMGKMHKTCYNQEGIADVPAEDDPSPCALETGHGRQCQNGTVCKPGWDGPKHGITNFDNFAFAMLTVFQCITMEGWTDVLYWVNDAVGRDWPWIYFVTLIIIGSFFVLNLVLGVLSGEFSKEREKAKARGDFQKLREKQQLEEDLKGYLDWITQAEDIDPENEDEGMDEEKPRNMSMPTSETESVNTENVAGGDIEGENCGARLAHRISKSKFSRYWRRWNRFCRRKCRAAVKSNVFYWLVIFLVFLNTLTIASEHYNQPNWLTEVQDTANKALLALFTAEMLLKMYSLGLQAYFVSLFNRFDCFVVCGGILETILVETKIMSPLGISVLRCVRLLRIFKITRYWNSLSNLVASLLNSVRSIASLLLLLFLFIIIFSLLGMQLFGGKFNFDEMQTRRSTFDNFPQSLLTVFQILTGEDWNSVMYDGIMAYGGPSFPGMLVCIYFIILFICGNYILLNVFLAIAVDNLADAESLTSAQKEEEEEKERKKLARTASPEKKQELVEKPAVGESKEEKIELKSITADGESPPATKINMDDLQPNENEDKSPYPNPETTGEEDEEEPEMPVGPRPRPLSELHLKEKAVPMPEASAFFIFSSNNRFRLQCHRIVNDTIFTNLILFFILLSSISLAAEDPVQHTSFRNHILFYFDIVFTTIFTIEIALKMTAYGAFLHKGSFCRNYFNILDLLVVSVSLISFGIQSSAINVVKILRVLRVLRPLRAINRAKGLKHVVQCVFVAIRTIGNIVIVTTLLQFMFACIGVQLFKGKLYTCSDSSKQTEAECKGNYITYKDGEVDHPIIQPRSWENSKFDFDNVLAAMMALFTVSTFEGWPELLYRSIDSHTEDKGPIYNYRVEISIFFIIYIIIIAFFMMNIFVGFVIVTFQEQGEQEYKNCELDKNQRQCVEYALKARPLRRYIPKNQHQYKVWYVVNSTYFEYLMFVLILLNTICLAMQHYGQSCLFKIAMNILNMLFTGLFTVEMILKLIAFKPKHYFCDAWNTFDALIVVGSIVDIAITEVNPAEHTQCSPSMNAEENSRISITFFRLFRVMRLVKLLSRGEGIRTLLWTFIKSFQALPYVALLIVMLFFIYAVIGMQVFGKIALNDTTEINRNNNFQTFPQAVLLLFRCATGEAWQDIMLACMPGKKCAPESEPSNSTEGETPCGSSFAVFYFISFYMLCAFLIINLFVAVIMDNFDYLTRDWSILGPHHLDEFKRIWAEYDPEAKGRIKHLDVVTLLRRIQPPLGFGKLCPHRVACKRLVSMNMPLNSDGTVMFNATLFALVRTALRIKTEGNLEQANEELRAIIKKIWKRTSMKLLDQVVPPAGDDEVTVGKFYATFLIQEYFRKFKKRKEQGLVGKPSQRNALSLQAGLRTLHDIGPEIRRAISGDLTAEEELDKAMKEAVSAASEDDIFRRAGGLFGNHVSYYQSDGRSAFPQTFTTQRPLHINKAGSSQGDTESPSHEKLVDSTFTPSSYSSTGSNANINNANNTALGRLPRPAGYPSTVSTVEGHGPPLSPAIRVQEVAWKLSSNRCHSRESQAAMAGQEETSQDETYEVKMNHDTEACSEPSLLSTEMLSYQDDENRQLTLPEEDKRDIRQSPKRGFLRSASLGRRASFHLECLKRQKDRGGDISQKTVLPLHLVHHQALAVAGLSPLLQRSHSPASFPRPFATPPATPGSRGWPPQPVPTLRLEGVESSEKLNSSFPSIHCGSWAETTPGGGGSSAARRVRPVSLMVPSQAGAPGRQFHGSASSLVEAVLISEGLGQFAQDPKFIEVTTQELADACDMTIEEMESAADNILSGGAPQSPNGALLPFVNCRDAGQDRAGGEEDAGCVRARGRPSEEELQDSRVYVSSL
T1 sequence (Q08289 1-605 isoform Q08289-2 partner): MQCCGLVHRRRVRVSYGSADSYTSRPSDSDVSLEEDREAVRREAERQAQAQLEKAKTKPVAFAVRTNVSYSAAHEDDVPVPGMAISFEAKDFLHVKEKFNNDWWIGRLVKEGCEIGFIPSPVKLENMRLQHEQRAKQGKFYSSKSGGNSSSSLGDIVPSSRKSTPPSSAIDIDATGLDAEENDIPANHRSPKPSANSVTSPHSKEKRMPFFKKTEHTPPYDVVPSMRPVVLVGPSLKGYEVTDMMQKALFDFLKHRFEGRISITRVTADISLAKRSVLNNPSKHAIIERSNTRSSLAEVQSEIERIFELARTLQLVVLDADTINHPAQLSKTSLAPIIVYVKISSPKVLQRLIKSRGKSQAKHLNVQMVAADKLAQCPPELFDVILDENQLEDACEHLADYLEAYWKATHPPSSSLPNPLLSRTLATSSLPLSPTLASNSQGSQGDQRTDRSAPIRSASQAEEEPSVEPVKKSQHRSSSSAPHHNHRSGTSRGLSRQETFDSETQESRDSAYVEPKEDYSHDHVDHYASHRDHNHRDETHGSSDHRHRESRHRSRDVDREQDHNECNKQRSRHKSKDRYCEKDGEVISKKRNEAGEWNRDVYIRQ
T1 sequence (P54289 25-1091 isoform P54289-2 partner limits assumed): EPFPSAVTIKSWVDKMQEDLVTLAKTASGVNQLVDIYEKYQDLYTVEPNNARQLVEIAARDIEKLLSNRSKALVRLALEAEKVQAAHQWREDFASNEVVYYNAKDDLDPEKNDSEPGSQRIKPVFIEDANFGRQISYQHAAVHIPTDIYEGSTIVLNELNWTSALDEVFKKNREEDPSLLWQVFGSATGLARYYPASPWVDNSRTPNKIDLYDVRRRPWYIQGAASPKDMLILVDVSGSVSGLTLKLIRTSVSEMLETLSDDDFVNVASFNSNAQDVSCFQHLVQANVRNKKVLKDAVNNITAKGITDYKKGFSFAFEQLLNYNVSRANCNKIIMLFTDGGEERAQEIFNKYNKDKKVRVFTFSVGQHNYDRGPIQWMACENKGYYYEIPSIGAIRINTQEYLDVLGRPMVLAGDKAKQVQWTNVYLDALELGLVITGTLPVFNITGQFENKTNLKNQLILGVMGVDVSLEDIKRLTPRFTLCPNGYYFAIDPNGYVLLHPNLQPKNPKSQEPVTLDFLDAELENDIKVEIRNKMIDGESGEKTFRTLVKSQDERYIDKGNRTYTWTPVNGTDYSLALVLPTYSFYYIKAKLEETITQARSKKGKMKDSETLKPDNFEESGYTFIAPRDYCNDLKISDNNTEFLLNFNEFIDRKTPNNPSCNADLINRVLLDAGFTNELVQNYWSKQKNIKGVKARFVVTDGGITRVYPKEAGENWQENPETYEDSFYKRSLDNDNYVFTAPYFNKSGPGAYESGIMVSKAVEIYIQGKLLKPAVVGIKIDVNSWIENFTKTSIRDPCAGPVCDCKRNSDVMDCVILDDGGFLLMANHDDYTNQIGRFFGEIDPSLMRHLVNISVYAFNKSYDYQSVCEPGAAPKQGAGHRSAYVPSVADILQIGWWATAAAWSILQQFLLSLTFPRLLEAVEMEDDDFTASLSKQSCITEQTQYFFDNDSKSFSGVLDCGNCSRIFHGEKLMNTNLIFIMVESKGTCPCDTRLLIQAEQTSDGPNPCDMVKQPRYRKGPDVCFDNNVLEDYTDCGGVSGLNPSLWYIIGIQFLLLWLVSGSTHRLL
T1 sequence (P54289 957-1103 partner limits assumed): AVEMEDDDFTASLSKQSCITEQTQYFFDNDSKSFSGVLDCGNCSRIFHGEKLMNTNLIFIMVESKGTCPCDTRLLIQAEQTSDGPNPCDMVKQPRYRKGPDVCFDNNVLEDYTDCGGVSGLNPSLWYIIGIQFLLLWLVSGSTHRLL
T2 sequence (Q12809 whole entry): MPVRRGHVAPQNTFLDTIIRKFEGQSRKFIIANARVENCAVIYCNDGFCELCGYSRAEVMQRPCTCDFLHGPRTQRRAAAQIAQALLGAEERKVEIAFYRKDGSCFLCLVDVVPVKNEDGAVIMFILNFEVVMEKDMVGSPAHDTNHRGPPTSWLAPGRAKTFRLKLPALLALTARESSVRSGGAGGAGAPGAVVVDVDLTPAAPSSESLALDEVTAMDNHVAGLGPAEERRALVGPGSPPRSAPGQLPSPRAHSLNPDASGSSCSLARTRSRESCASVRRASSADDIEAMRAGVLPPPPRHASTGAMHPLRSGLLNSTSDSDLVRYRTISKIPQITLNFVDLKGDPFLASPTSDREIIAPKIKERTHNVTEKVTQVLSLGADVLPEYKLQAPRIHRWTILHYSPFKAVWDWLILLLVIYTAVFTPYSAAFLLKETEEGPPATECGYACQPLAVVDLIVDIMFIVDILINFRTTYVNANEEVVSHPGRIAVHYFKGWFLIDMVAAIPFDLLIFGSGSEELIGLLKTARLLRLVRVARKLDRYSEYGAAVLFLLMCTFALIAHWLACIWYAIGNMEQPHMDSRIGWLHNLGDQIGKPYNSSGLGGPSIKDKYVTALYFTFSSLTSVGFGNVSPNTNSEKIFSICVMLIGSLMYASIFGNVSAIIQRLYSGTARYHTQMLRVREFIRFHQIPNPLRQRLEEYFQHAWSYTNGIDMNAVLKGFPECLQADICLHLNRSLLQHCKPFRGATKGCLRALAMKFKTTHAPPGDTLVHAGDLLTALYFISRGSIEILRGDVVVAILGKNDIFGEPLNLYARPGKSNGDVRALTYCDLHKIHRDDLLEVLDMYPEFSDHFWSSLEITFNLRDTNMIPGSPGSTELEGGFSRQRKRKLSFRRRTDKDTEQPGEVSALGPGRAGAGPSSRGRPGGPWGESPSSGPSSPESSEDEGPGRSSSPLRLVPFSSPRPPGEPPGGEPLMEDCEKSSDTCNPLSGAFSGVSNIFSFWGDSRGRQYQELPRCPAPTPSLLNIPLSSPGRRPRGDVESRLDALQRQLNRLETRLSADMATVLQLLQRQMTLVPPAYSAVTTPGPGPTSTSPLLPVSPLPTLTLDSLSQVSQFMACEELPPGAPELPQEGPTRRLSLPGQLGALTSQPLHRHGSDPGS

SMILES | Cav1.2 1 μM (ion-channel inhibition) [1] | CaV 1.2 10 μM (ion-channel inhibition) [1] | hERG 1 μM (ion-channel inhibition) [2] | hERG 10 μM (ion-channel inhibition) [2] | Iks 1 μM (ion-channel inhibition) ([3]; 1 μM test article) | Iks 10 μM (ion-channel inhibition) ([3]; 10 μM test article)
CCN(CC)CCOc1ccc2ccccc2c1Cc1c(O)ccc2ccccc12.O=CO [Compound A093, 1-((2-(2-(diethylamino)ethoxy)naphthalen-1-yl)methyl)naphthalen-2-ol formate] | C (C = 25-50%) | A (A = 75-100%) | A (A = 75-100%) | A (A = 75-100%) | D (D = <25%) | A (A = 75-100%)
Oc1cccc(-c2ccccc2)c1Cc1c(O)cccc1-c1ccccc1 [Compound A034, 2,2″-methylenebis(([1,1′-biphenyl]-3-ol))] | D (D = <25%) | B (B = = 50-75%) | D (D = <25%) | D (D = <25%) | – | –
